Source: publication PMC5794828, “A novel galactolipase from a green microalga Chlorella kessleri: purification, characterization, molecular cloning, and heterologous expression” (Applied Microbiology and Biotechnology, 2018)

Key:
[1] = target: T1, ckGL (purified native galactolipase) (Parachlorella kessleri, UniProt A0A2Z5TTR4); assay: free fatty acid release (NEFA C kit, A550), Lineweaver-Burk linear regression; type: biochemical; settings: pH 6.5 MES-NaOH, 37 °C, 2 mM CaCl2, 0.3% (w/v) Triton X-100; substrate is an acyl-chain mixture; read-out: apparent Km
T1 construct: gene chGL; native, purified from C. kessleri cells; N-terminus TALREVATKSEVSEA; ~53 kDa; in Triton X-100
T1 sequence (A0A2Z5TTR4 61-535): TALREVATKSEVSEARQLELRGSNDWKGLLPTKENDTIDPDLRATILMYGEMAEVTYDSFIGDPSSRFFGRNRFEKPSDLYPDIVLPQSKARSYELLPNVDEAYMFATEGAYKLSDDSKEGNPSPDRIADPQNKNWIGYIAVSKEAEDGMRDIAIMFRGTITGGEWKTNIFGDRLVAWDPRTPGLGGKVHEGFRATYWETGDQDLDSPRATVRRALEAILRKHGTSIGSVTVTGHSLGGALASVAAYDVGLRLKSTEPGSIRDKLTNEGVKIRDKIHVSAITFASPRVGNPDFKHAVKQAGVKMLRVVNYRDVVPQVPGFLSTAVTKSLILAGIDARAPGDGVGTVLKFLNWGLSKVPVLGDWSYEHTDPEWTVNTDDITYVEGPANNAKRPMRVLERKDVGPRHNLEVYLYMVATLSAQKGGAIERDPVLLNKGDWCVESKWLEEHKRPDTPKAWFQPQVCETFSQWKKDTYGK

rckGL (recombinant ckGL) = target: T2, rckGL (recombinant ckGL) (Parachlorella kessleri, UniProt A0A2Z5TTR4); assay: free fatty acid release (NEFA C kit, A550), nonlinear regression; type: biochemical; settings: pH 6.5 MES-NaOH, 37 °C, 2 mM CaCl2, 0.3% (w/v) Triton X-100; substrate is an acyl-chain mixture; read-out: apparent Km
T2 construct: gene chGL; His-tag and trigger factor cut off with factor Xa; ~53 kDa
T2 sequence (A0A2Z5TTR4 61-535): T1 sequence (A0A2Z5TTR4 61-535)

Km [1]: 1.05 ± 0.48 mM
Km (rckGL (recombinant ckGL)): 540 ± 110 µM
Substance: 1,2-diacyl-3-O-(α-D-galactosyl1-6)-β-D-galactosyl-sn-glycerol [DGDG]
